# What was measured:
# OVA-challenged mice = test: Histological analysis of lung airway inflammation in OVA-challenged mice; format: in vivo, mouse
# Procedure: (§1) Female BALB/c mice and C57BL/6 mice (7 weeks old; 18-20 g) were obtained from Orientbion Inc. (Seoungnam, Korea). Sensitization and challenge were carried out as described previously with some modification (28). Briefly, female C57BL/6 mice (7 weeks old; 18-20 g) were immunized by intraperitoneal (i.p.) injection of 200 μg ovalbumin (OVA) emulsified in 2.5 mg of adjuvant aluminum hydroperoxide gel (alum) (Pierce, Rockford, Ill.). A second i.p. injection of 20 μg OVA adsorbed onto alum (2.5 mg) was administered 10 days later. After an additional 10 days, mice were exposed to an aerosol of 1% OVA in saline for 30 min daily on 3 consecutive days. On day 25, mice were finally challenged by provocation with 10% OVA aerosol. For inhibition experiments, sense or antisense BLT2 (1.6 mg/kg) was injected intravenously 24 h and then 1 h before the 10% OVA challenge. The mice were then killed on day 27 to assess asthmatic phenotypes. Antisense BLT2 oligonucleotide (5′-[…]-3′ (SEQ ID NO: 15)), sense BLT2 oligonucleotide (5′-[…]-3′ (SEQ ID NO: 16)).
# (§2) Alternatively, BALB/c mice were sensitized on day 1 by i.p. injection of 20 μg OVA emulsified in 2.5 mg of alum (Pierce, Rockford, Ill.), followed by an identical booster injection administered on day 14. On days 21, 22 and 23 after initial sensitization, the mice were challenged for 30 min with an aerosol of 1% OVA using an ultrasonic nebulizer. LY255283 (2.5 mg/kg) or vehicle control (DMSO) was administered intravenously 1 h before 1% OVA challenge. Mice were killed on day 25, to assess asthmatic phenotypes. 2′,7′-dichorofluorescein diacetate (DCF-DA) was purchased from Molecular Probes (Eugene, Oreg.). BSA and DMSO were from Sigma-Aldrich (St. Louis, Mo.). Acetyl-methacholine chloride was purchased from Sigma-Aldrich (St. Louis, Mo.). All other chemicals were from standard sources and were of molecular biology grade or higher. All mice were maintained and bred under specific pathogen-free conditions in the Korea University mouse facility, and experiments were conducted within the parameters of an approved protocol by the Animal Research Committee.
# Inflammatory cells in the BAL fluid were collected by centrifugation (1,000 g for 3 min) and washed once in PBS. Cells were counted using a hemocytometer, and viability was assessed by trypan blue exclusion. In addition, cytospin was carried out for each BAL sample, which was then stained with Diff-Quick (Merck, Dorset, U.K.), enabling differential cell counts to be made. For histological analysis, the lungs of the mice were dissected 48 h after OVA challenge and fixed with 10% formaldehyde in PBS, dehydrated in ethanol-xylene, and embedded in paraffin. Multiple paraffin-embedded […] sections were placed on 0.5% gelatin-coated slides, deparaffinized, and stained with hematoxylin-eosin (HE). Images were acquired using a BX51 microscope (Olympus, Tokyo, Japan) equipped with a DP71 digital camera (Olympus, Tokyo, Japan).
# (§3) Inflammatory cells in the BAL fluid were collected by centrifugation (1,000 g for 3 min) and washed once in PBS. Cells were counted using a hemocytometer, and viability was assessed by trypan blue exclusion. […]
# as §3
# VCAM-1 = VCAM-1 expression in lung tissue (Western blot); format: in vivo, mouse
# Procedure: as §1
# as §2, with “All mice were maintained and bred under specific pathogen-free conditions in the Korea University mouse facility, and experiments were conducted within the parameters of an approved protocol by the Animal Research Committee.” left out
# [1] = BALB/c mice, LY255283 2.5 mg/kg i.v. 1 hr before 1% OVA challenge
# [2] = C57BL/6 mice, antisense BLT2 1.6 mg/kg i.v. 24 hr and 1 hr before 10% OVA challenge
molecule,measurement,setting,value
"CCc1cc(C(C)=O)c(O)cc1OCCCCCC(C)(C)c1nnn[nH]1 [LY255283, 1-[5-ethyl-2-hydroxy-4-[[6-methyl-6-(1H-tetrazol-5-yl)heptyl]oxy]phenyl]-ethanone, reference compound]",airway obstruction and leukocyte infiltration (histology),OVA-challenged mice; [1],diminished the effect
same,reduction of inflammation score as compared to control,OVA-challenged mice; [1],~66%
same,suppression of OVA-induced VCAM-1 induction in lung tissue,VCAM-1; LY255283 2.5 mg/kg 1 hr before 1% OVA challenge,−60%
"antisense BLT2: Antisense BLT2 oligonucleotide 5′-GCTCAGTAGTGTCTCATTCC-3′ (SEQ ID NO: 15) (listed as DNA, chemistry not fully specified)",airway obstruction and leukocyte infiltration (histology),OVA-challenged mice; [2],diminished
same,reduction of inflammation scores as compared to control,OVA-challenged mice; [2],~67%
same,suppression of OVA-induced VCAM-1 induction in lung tissue,VCAM-1; antisense BLT2 1.6 mg/kg,−60%
"antisense Rac: phosphorothioate 17-mer to the 5′ end of murine Rac mRNA, 5′-CACTTGATGGCCTGCAT-3′ (SEQ ID NO: 22) (listed as DNA, chemistry not fully specified)",airway obstruction and leukocyte infiltration (histology),"OVA-challenged mice; Rac antisense i.v. 24 hr and 1 hr before 10% OVA challenge, 48 hr after challenge",diminished the effect
same,OVA-induced VCAM-1 induction in lung tissue,"VCAM-1; antisense Rac 1.25 mg/kg, tail vein",suppressed this effect

# Reference: patent publication US9255272B2, “Use of inhibitors of leukotriene B4 receptor BLT2 for treating asthma” (Korea University Research & Business Foundation, priority 2007, dated 2016)
